Values belong to the molecule of their own block, whether it stands above or below them.
How the values were obtained:
S1P1 = molecular target: T1, S1P1 (Homo sapiens, UniProt P21453); assay: S1P1 overexpression cell activity by β-arrestin assay (U2OS-EDG1); type: cell-based; conditions: U2OS-EDG1 cells
T1 construct: host or cells: U2OS (human osteosarcoma) cell line, U2OS-EDG1
Description: The following experiments were conducted to detect the activity of the compound on S1P1 overexpression cells by β-arrestin assay. [table] [table] 3. Experimental Steps Day 1: Cell Seeding Plate and Compound Treatment • (1) Firstly, the compound was diluted by a 4-fold gradient into 10 concentration points from the concentration of 10 μM in the culture plate by using NL fluid transfer system, with 2 replicates at each concentration point. • (2) Cells were resuspended by using FreeStyle™ expression medium, and the cell density was adjusted to 7,500 cells per 40 μL suspension. The samples with test concentration were added into the well of the cell culture plate, and 40 μL cell suspension was added into the corresponding well. • (3) The above cell plates were incubated overnight in a CO2 incubator with 5% (volume fraction) at 37° C. Day 2: Detection and Data Analysis • (1) The buffer solution was prepared according to the preparation method in the instructions of LiveBLAser™-fluorescence resonance energy transfer B/G loading kit. • (2) 8 μL detection reagent was added to each well, which were shaken and mixed evenly for 1 minute, centrifugated at 1,000 rpm for 10 seconds, and incubated at 23° C. in dark for 2 hours. • 3) Detection was performed by multimode reader. • 4) The PrismDemo software was used to analyze the data and fit the curve. 4. Experimental Results

[1] = test system: TNBS induced ulcerative colitis in rats; assay: TNBS induced ulcerative colitis in rats; type: in vivo, rat; conditions: for Colon length / Colon weight / Colon weight/colon length / Ulcer area: day 8; for General anatomical view of colon, from excellent to poor: 7 days administration, SASP 360, Example 3 and Etrasimod 3, Ozanimod 10 mg/kg; for Drug efficacy intensity (colon weight): oral gavage for 7 consecutive days, doses as given in ranking
Description: Preparation of molding agent: 5 mL TNBS and 8.953 mL anhydrous ethanol and 26.741 sterilized water for injection. • TNBS comes from Dalian Meilun Biotechnology Co., Ltd. • Source of SPF male SD rats: Shanghai Slake Experimental Animal Co., Ltd. • Animal age at the beginning of the experiment: 8 to 10 weeks; • Animal weight at the beginning of the experiment: about 250 g; • Adaptation time: 5 to 7 days; • Animals were fasted (only water) for 24 hours. After inhalation anesthesia with isoflurane, all rats were perfused with 0.5 mL TNBS ethanol solution per rat (18 mg TNBS/rat) via rectum with latex hose, with the length of the hose entering the rectum of about 8 cm. After withdrawing the hose, the rats remained under isoflurane anesthesia, and kept in the inclined state of hip elevation for 15 minutes.
The rats after modeling were randomly divided into 5 groups: model group, positive control group using drug sulfasalazine (SASP, 360 mg/kg), test substance group using the compound of Example 3 (3 mg/kg), test substance group using Etrasimod (3 mg/kg), test substance group using Ozanimod (10 mg/kg).
At 3 hours after modeling, the animals in each group were administrated with medicine solution by oral gavage (Table 1), 5 mL/kg body weight (10 mL/kg in sulfasalazine group), once a day, for 7 consecutive days, and the feces of the animals and whether there is death were observed every day. On the 8th day, the animals were killed under CO2 overdose anesthesia followed by being dissected, the entire colon tissue was extracted, the contents of the colon were cleaned after longitudinal dissection along the mesenteric side, the colon was weighed and measured for its length, the area of the ulcer was measured, and the general situation was observed and photos were taken. Finally, the colon was fixed in 10% formalin, and H&E staining and histopathological analysis (inflammation, goblet cells, lesion depth, ulcer degree, crypt abscess) were performed.
Wherein, the compound of Example 3 of the invention, purity: 99.74%. • Etrasimod, prepared according to the literature method (the second isomer of Example 1.29 in WO2010/011316A1), purity: 98.47%. • Ozanimod, prepared according to the literature method (compound 86 in WO2011/060392A1), purity: 99.78%. • Sulfasalazine enteric-coated tablets, produced by Shanghai Fuda Pharmaceutical Co., Ltd., 0.25 g/tablet. Enteric coated tablets show yellow to brownish yellow after the coating is removed. • Solutol: Beijing Fengli Jingqiu Pharmaceutical Co., Ltd. • Solvent preparation: • DMSO, Solutol and 0.9% sodium chloride solution were mixed according to the volume ratio of 5:10:85 to prepare the solvent.
Preparation of compound of Example 3 and Etrasimod solution: 27 mg of test substances were taken respectively and dissolved in 45 mL of solvent to obtain corresponding test substance solution.
Ozanimod: 90 mg Ozanimod was dissolved in 45 mL solvent to obtain Ozanimod solution.
Preparation of SASP solution: six sulfasalazine enteric-coated tablets after grinding were added to 41.7 mL 0.5% CMC-Na, and then dissolved by ultrasonic to obtain SASP solution.
Due to the excipient factor of SASP drug preparation, the concentration should not be too high when suspended in 0.5% CMC-Na, otherwise the suspension was uneven and the mobility was poor, so the dose volume of SASP was doubled compared with the compound of Example 3 and Etrasimod.

[2] = test system: DSS induced ulcerative colitis in mice; assay: DSS induced ulcerative colitis in mice; type: in vivo; set-up: key to Total stool scores: sum of shape (1-3) and bleeding (1-3) levels; normal = 1 each; conditions: for Weight / Total stool scores: 20 mg/kg oral gavage once a day
Description: Molecular weight of DSS dextran sodium sulfate: 36,000 to 50,000, From MP Biomedical Company.
Preparation of molding agent: preparation of 3.5% DSS: 49 g DSS plus 1,400 mL high-temperature sterilized water.
Source of SPF male C57BL/6 mice: Beijing Weitong Lihua Experimental Animal Technology Co., Ltd. • Animal age at the beginning of the experiment: 6 to 8 weeks; • Animal weight at the beginning of the experiment: 22 to 25 g; • Adaptation time: 3 to 5 days;
The mice were divided into groups according to their weight, 10 mice in each group. The mice were administrated once a day by gavage (or blank) according to the following Table 4.
Animals were given 3.5% DSS solution for free drinking water modeling (the day of modeling was recorded as day 1), and the modeling agent was replaced once every two days for 7 consecutive days, and then (day 8) 3.5% DSS was replaced with ordinary drinking water for another 1 day.
• Preparation of solvent 1: 0.66 mL DMSO, 1.32 mL Solutol and 11.22 mL Saline were mixed to prepare 13.2 mL of solvent 1; • Preparation of solvent 2: 0.3 mL DMSO, 0.6 mL Solutol and 5.1 mL Saline were mixed to prepare 6 mL of solvent 2; • Preparation of solution of compound of Example 3: 39.6 mg of compound of Example 3 was dissolved in 13.2 mL of solvent 1 to obtain the solution of compound 1 of Example 3, the solution 1 of compound of Example 3 was diluted with solvent 1 to prepare the solution of compound of Example 3 with concentrations of 2 mg/mL, 1 mg/mL, and 0.6 mg/mL; • Etrasimod solution: 6 mg of Etrasimod was dissolve in 6 mL of solvent 2 to obtain Etrasimod solution; • Ozanimod solution: 12 mg of […] was dissolved in 6 mL solvent 2 to obtain Ozanimod solution; • Note: Prepare once every two days, and store in refrigerator at 4° C.
Wherein, the purity of compound of Example 3 was 99.74%, Ozanimod and Etrasimod were prepared by the method described in Example 8, and the purities were 99.78% and 98.47% respectively.
The mouse stool was observed on its shape, bleeding condition every two days, and scored. Scoring criteria for stool condition: shape: normal (level 1), soft stool (level 2), and loose stool (level 3); traits: normal (level 1), faint redness (level 2), and bloody stool visible to the unaided eye (level 3).
After the last administration (8 consecutive days), the animals were dissected on the next day (day 9), the colon was separated, the whole colon was photographed, and the colon length was measured. Then the colon was cut longitudinally along the mesenteric side to remove the contents, which was weighed and observed on the integrity of the colonic mucosa. The colon was then fixed in 10% formalin.

[3] = 10 mg/kg oral gavage once a day for 7 days
[4] = 360 mg/kg oral gavage once a day for 7 days

T1 sequence (P21453 whole entry): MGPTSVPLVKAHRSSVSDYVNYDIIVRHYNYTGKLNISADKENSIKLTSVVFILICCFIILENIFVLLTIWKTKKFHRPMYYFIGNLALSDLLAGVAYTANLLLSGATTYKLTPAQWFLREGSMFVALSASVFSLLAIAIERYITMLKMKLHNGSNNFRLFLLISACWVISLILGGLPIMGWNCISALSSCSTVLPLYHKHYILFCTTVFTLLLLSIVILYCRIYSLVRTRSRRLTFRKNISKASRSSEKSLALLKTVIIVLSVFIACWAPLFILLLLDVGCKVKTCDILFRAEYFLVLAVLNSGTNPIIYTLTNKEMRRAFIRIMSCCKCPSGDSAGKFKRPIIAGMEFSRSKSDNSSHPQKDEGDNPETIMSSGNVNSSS

- IC50 (S1P1): 0.51 nM
SMILES: Cc1cc(OCc2ccc(C3CCCC3)c(C(F)(F)F)c2)cc2ccn(CCC(=O)O)c12 [Compound of Example 1, 3-(5-((4-cyclopentyl-3-(trifluoromethyl)benzyl)oxy)-7-methyl-1H-indole-1-yl)propionic acid]

- IC50 (S1P1): 3.27 nM
SMILES: CCc1cc(OCc2ccc(C3CCCC3)c(C(F)(F)F)c2)cc2ccn(CCC(=O)O)c12 [Compound of Example 2, 3-(5-((4-cyclopentyl-3-(trifluoromethyl)benzyl)oxy)-7-ethyl-1H-indole-1-yl)propionic acid]

- IC50 (S1P1): 1.73 nM
SMILES: Cc1cc(OCc2ccc(C3CCCC3)c(C(F)(F)F)c2)cc2ccn(CCCC(=O)O)c12 [Compound of Example 4, 4-(5-((4-cyclopentyl-3-(trifluoromethyl)benzyl)oxy)-7-methyl-1H-indole-1-yl)butyric acid]

- IC50 (S1P1): 0.251 nM
SMILES: O=C(O)CCCn1ccc2cc(OCc3ccc(C4CCCC4)c(C(F)(F)F)c3)cc(Cl)c21 [Compound of Example 5, 4-(7-chlorine-5-((4-cyclopentyl-3-(trifluoromethyl)benzyl)oxy)-1H-indole-1-yl)butyric acid]

- IC50 (S1P1): 175 nM
SMILES: O=C(O)Cn1ccc2cc(OCc3ccc(C4CCCC4)c(C(F)(F)F)c3)ccc21 [Compound of Example 6, 2-(5-((4-cyclopentyl-3-(trifluoromethyl)benzyl)oxy)-1H-indole-1-yl)acetic acid]

SMILES: CC(C)Oc1ccc(-c2nc(-c3cccc4c3CC[C@@H]4NCCO)no2)cc1C#N [Ozanimod, reference compound]
- Colon length [1, 3]: 13.09 ± 0.5 cm
- Colon weight [1, 3]: 3.30 ± 0.53 g
- Colon weight/colon length [1, 3]: 0.25 g/cm
- Ulcer area [1, 3]: 498.04 ± 202.49 mm^2
- General anatomical view of colon, from excellent to poor [1]: group using compound of Example 3>group using sulfasalazine>group using Etrasimod>group using Ozanimod
- Weight ([1]; Day 1, 10 mg/kg oral gavage once a day): 247.1 ± 0.64 g
- Weight ([1]; Day 2, 10 mg/kg oral gavage once a day): 225.6 ± 0.65 g
- Weight ([1]; Day 3, 10 mg/kg oral gavage once a day): 225.1 ± 0.86 g
- Weight ([1]; Day 4, 10 mg/kg oral gavage once a day): 225.9 ± 1.39 g
- Weight ([1]; Day 5, 10 mg/kg oral gavage once a day): 231.3 ± 1.63 g
- Weight ([1]; Day 6, 10 mg/kg oral gavage once a day): 239 ± 1.72 g
- Weight ([1]; Day 7, 10 mg/kg oral gavage once a day): 247.8 ± 1.74 g
- Weight ([1]; Day 8, 10 mg/kg oral gavage once a day): 262.8 ± 1.22 g
- Drug efficacy intensity (colon weight) [1]: group using the compound of Example 3 (3 mg/kg)>group using Etrasimod (3 mg/kg)>group using sulfasalazine (360 mg/kg)>model group>group using Ozanimod (10 mg/kg)
- Colon length compared with model group ([2]; 20 mg/kg): longer than that of the model group
- Colon weight ([2]; 20 mg/kg oral gavage once a day for 8 days, day 9): 0.157 ± 0.01 g
- Effect on blood stool and loose stool compared with model group ([2]; 20 mg/kg, day 9): had not significant improvement
- Weight ([2]; Day 1): 21.2 ± 0.19 g
- Weight ([2]; Day 2): 21.7 ± 0.25 g
- Weight ([2]; Day 3): 21.7 ± 0.26 g
- Weight ([2]; Day 4): 21.9 ± 0.33 g
- Weight ([2]; Day 5): 21.5 ± 0.27 g
- Weight ([2]; Day 6): 20.6 ± 0.54^ g
- Total stool scores ([2]; Day 7): 5.9 ± 0.11
- Weight ([2]; Day 7): 18.9 ± 0.54 g
- Total stool scores ([2]; Day 8): 6.0 ± 0
- Weight ([2]; Day 8): 18.0 ± 0.5 g
- Total stool scores ([2]; Day 9): 5.1 ± 0
- Weight ([2]; Day 9): 16.5 ± 0.49 g
- Number of dead animals ([2]; by the end of the test period, 10 mice per group, doses as Table 4 (Ozanimod 20 mg/kg)): 3

SMILES: O=C(O)c1cc(/N=N/c2ccc(S(=O)(=O)Nc3ccccn3)cc2)ccc1O [SASP, Sulfasalazine]
- Colon length [1, 4]: 13.89 ± 0.45 cm
- Colon weight [1, 4]: 3.35 ± 0.74 g
- Colon weight/colon length [1, 4]: 0.24 g/cm
- Ulcer area [1, 4]: 320.23 ± 167.1 mm^2
- General anatomical view of colon, from excellent to poor [1]: group using compound of Example 3>group using sulfasalazine>group using Etrasimod>group using Ozanimod
- Weight ([1]; Day 1, 360 mg/kg oral gavage once a day): 250.1 ± 0.48 g
- Weight ([1]; Day 2, 360 mg/kg oral gavage once a day): 226.4 ± 0.34 g
- Weight ([1]; Day 3, 360 mg/kg oral gavage once a day): 227.6 ± 1.13 g
- Weight ([1]; Day 4, 360 mg/kg oral gavage once a day): 231.8 ± 1.59 g
- Weight ([1]; Day 5, 360 mg/kg oral gavage once a day): 238.6 ± 1.83 g
- Weight ([1]; Day 6, 360 mg/kg oral gavage once a day): 247.3 ± 1.91 g
- Weight ([1]; Day 7, 360 mg/kg oral gavage once a day): 255 ± 2.01 g
- Weight ([1]; Day 8, 360 mg/kg oral gavage once a day): 267.9 ± 1.9 g
- Weight course compared with model group ([1]; SASP 360 mg/kg, Example 3 and Etrasimod 3 mg/kg, oral once a day): a certain tendency to inhibit the weight loss
- Drug efficacy intensity (colon weight) [1]: group using the compound of Example 3 (3 mg/kg)>group using Etrasimod (3 mg/kg)>group using sulfasalazine (360 mg/kg)>model group>group using Ozanimod (10 mg/kg)

From patent US12486229B2, “Indole derivative and application thereof” (SHANGHAI MEDICILON INC., priority 2020, dated 2025)
